How the values were obtained:
human cardiac OOC [1] = experiment: Cardiac OOC extracellular LDH cytotoxicity assay; format: cell-based; conditions: after linsitinib exposure
Procedure: (§1) Tissues were randomly assigned to experimental groups. Medium was changed every day. Cardiac tissues were exposed to linsitinib for 3 days.
Cell viability: Cancer cell viability was measured for GFP-Luciferase labelled cancer cells using ONE-Glo luciferase substrate that was prepared according to manufacturer's protocol (Promega). Samples were collected following 3, 7, and 21-day cycles of Linsitinib treatment. Cardiac cell viability was assessed through the Pierce LDH Cytotoxicity Assay Kit (Thermo Fisher Scientific). Samples were collected at 0 h, 1 h and 72 h.

human cardiac OOC [2] = experiment: Cardiac OOC hydrogen peroxide (ROS-Glo H2O2) assay; format: cell-based; conditions: after linsitinib treatment
Procedure: as §1
Hydrogen peroxide assay: After drug treatment, hydrogen peroxide (H2O2) levels in cardiac tissues were measured using ROS-Glo™ H2O2 Assay (Promega).

[3] = test system: non-metastatic (RD-ES cell line derived) Ewing sarcoma OOC; experiment: Non-metastatic Ewing sarcoma OOC, luciferase luminescence (cancer cell number and viability); format: cell-based, human; conditions: 12 μM
Procedure: Drug treatment experiments recapitulating the patient treatment regimens and the patient plasma concentration of 12 μM of linsitinib were then carried out on the nonmetastatic and metastatic TE-ES and OS models. FIGS. 42 and 43 are graphs illustrating non-metastatic (RD-ES cell line derived, FIG. 42) and metastatic (SK-N-MC cell line derived, FIG. 43) Ewing sarcoma OOCs were exposed to linsitinib (12 μM) according to the drug treatment regimen. Luminescence as a function of cancer cell number and viability was measured (mean±s.e.m., n=6 for day 3, and n=3 for day 7 and 21, biologically independent per group). Significance was determined by unpaired two-tailed Student's t test of treatment group at specific day with respective control; *P<0.05; **P<0.01; ***P<0.001. Tissue engineered bone tumor models: Using an established protocol, expanded MSCs were seeded into the bone matrix scaffolds (4 mm×4 mm×1 mm) at a concentration of 10^6 cells per scaffold, using 40 μL of medium. The cells were allowed to attach for 2 hours, and then supplemented with additional mesenchymal stem cell medium overnight. The following day, osteogenic differentiation of the seeded cells was initiated by addition of low glucose DMEM supplemented with 1 μM dexamethasone (Sigma-Aldrich), 10 mM β-glycerophosphate (SigmaAldrich), and 50 μM L-ascorbic acid-2-phosphate (Sigma Aldrich). Each scaffold was incubated in 4 mL of osteogenic media, with media changes three times a week, for 3 weeks, allowing for the MSCs to differentiate into functional, maturing osteoblasts. Two weeks following the initiation of osteogenic differentiation, aggregates of tumor cells were prepared as described previously. Briefly, 0.3×10^6 cells were used to form ES aggregates and 0.5×10^6 cells were used to form OS aggregates. After 1 week of culture, the primary bone tumor aggregates were infused into the differentiated osteoblastseeded bone scaffolds (3 aggregates per scaffold, placed apart of each other). Tumor models were established for each of the two ES cell types (non-metastatic RD-ES, metastatic SK-NMC) and three OS cell types (non-metastatic U2-OS and Saos2, metastatic KHOS/NP). TE-RD-ES were cultured in the RPMI medium, TE-U-2 OS in DMEM, TE-Saos2 in McCoy's 5A, and TESK-N-MC and TE-KHOS/NP both in EMEM. Scaffolds without aggregates were used as healthy bone controls for each tumor model (termed TE-bone) and were cultured in the respective cancer cell line medium. […] Cell viability: Cancer cell viability was measured for GFP-Luciferase labelled cancer cells using ONE-Glo luciferase substrate that was prepared according to manufacturer's protocol (Promega). […] Cardiac cell viability was assessed through the Pierce LDH Cytotoxicity Assay Kit (Thermo Fisher Scientific). […]

[4] = test system: metastatic (SK-N-MC cell line derived) Ewing sarcoma OOC; experiment: Metastatic Ewing sarcoma OOC, luciferase luminescence (cancer cell number and viability); format: cell-based, human; conditions: 12 μM
Procedure: Drug treatment experiments recapitulating the patient treatment regimens and the patient plasma concentration of 12 μM of linsitinib were then carried out on the nonmetastatic and metastatic TE-ES and OS models. FIGS. 42 and 43 are graphs illustrating non-metastatic (RD-ES cell line derived, FIG. 42) and metastatic (SK-N-MC cell line derived, FIG. 43) Ewing sarcoma OOCs were exposed to linsitinib (12 μM) according to the drug treatment regimen. Luminescence as a function of cancer cell number and viability was measured (mean±s.e.m., n=6 for day 3, and n=3 for day 7 and 21, biologically independent per group). Significance was determined by unpaired two-tailed Student's t test of treatment group at specific day with respective control; *P<0.05; **P<0.01; ***P<0.001. Tissue engineered bone tumor models: Using an established protocol, expanded MSCs were seeded into the bone matrix scaffolds (4 mm×4 mm×1 mm) at a concentration of 10^6 cells per scaffold, using 40 μL of medium. The cells were allowed to attach for 2 hours, and then supplemented with additional mesenchymal stem cell medium overnight. The following day, osteogenic differentiation of the seeded cells was initiated by addition of low glucose DMEM supplemented with 1 μM dexamethasone (Sigma-Aldrich), 10 mM β-glycerophosphate (SigmaAldrich), and 50 μM L-ascorbic acid-2-phosphate (Sigma Aldrich). Each scaffold was incubated in 4 mL of osteogenic media, with media changes three times a week, for 3 weeks, allowing for the MSCs to differentiate into functional, maturing osteoblasts. Two weeks following the initiation of osteogenic differentiation, aggregates of tumor cells were prepared as described previously. Briefly, 0.3×10^6 cells were used to form ES aggregates and 0.5×10^6 cells were used to form OS aggregates. After 1 week of culture, the primary bone tumor aggregates were infused into the differentiated osteoblastseeded bone scaffolds (3 aggregates per scaffold, placed apart of each other). Tumor models were established for each of the two ES cell types (non-metastatic RD-ES, metastatic SK-NMC) and three OS cell types (non-metastatic U2-OS and Saos2, metastatic KHOS/NP). TE-RD-ES were cultured in the RPMI medium, TE-U-2 OS in DMEM, TE-Saos2 in McCoy's 5A, and TESK-N-MC and TE-KHOS/NP both in EMEM. Scaffolds without aggregates were used as healthy bone controls for each tumor model (termed TE-bone) and were cultured in the respective cancer cell line medium. All culture media were supplemented with 10% FBS and 1% penicillin/streptomycin. […] Tissues were randomly assigned to experimental groups. Medium was changed every day. Cardiac tissues were exposed to linsitinib for 3 days. The bone tumor models were exposed to a physiological treatment regimen consisted of cycles that involved 3 consecutive days of treatment followed by 4 days without drug, unless otherwise stated. Cell viability: Cancer cell viability was measured for GFP-Luciferase labelled cancer cells using ONE-Glo luciferase substrate that was prepared according to manufacturer's protocol (Promega). Samples were collected following 3, 7, and 21-day cycles of Linsitinib treatment. Cardiac cell viability was assessed through the Pierce LDH Cytotoxicity Assay Kit (Thermo Fisher Scientific). Samples were collected at 0 h, 1 h and 72 h.

[5] = patients with other types of cancers; cited from earlier work

levels of reactive oxygen species (hydrogen peroxide formation) (human cardiac OOC [2]): not observed
SMILES: C[C@]1(O)C[C@@H](c2nc(-c3ccc4ccc(-c5ccccc5)nc4c3)c3c(N)nccn32)C1 [linsitinib, Linsitinib (OSI-906)]
extracellular lactate dehydrogenase (LDH) (human cardiac OOC [1]): increased levels
course of treated cancer cell population ([3]; 21-day treatment cycle): stopped expanding after the treatment
luminescence (cancer cell number and viability) vs control ([3]; day 3): significant drug response
luminescence (cancer cell number and viability) vs control ([3]; day 7): significant responses
luminescence (cancer cell number and viability) vs control ([3]; day 21): significant responses
course of treated cancer cell population ([4]; 21-day treatment cycle): continued to expand throughout the 21-day treatment cycle
drug efficacy after day 3 ([4]; after 3 days): decrease in drug efficacy
luminescence (cancer cell number and viability) vs control ([4]; day 3): significant drug response
luminescence (cancer cell number and viability) vs control ([4]; day 7): significant responses
luminescence (cancer cell number and viability) vs control ([4]; day 21): significant responses
cardiotoxicity in clinical trials [5]: proarrhythmic events, like tachycardia and atrial fibrillation
